Data taken from ChEMBL document CHEMBL3885881, “DrugMatrix”.

Species on record: Rattus norvegicus
Experiment: DrugMatrix - Regimen: Daily Repeat
Type: toxicity, organism-based, Sprague-Dawley
Set-up: regimen Daily Repeat, gender Male, age 6-8 weeks
Conditions: in vivo, po, route oral GAVAGE, vehicle .5 % CMC; for ABSOLUTE BASOPHIL / ABSOLUTE EOSINOPHIL / ABSOLUTE LYMPHOCYTE / ABSOLUTE MONOCYTE / ABSOLUTE SEGMENTED NEUTROPHIL / BASOPHIL / EOSINOPHIL / ERYTHROCYTE COUNT / HEMATOCRIT / HEMOGLOBIN / LEUKOCYTE COUNT / LYMPHOCYTE / MEAN CORPUSCULAR HEMOGLOBIN / MEAN CORPUSCULAR HEMOGLOBIN CONCENTRATION / MEAN CORPUSCULAR VOLUME / MONOCYTE / NEUTROPHIL / NUCLEATED RED BLOOD CELLS / PLATELET COUNT: tissue Blood; for ALANINE AMINOTRANSFERASE / ALBUMIN / ALKALINE PHOSPHATASE / ASPARTATE AMINOTRANSFERASE / BLOOD UREA NITROGEN / CARBON DIOXIDE / CHLORIDE / CHOLESTEROL / CREATINE PHOSPHOKINASE / CREATININE / GLUCOSE / LACTATE DEHYDROGENASE / LIPASE / PHOSPHORUS / POTASSIUM / SODIUM / TOTAL BILIRUBIN / TOTAL PROTEIN / URIC ACID: tissue Plasma
[1] = 100 mg/kg, 120 h, dose level Low, time 5 day
[2] = 1503 mg/kg, 72 h, dose level High, time 3 day
[3] = 1503 mg/kg, 120 h, dose level High, time 5 day

Question: `Cl.NC[C@H]1CC[C@H](C(=O)Oc2ccc(CCC(=O)O)cc2)CC1` [CETRAXATE HYDROCHLORIDE] was tested. Which “ABSOLUTE BASOPHIL” value [1] did it give?
Answer: 0 CELLS/uL

Question: What about the “ABSOLUTE EOSINOPHIL” value [1] of the same compound?
Answer: 157.33 CELLS/uL

Question: And the “ABSOLUTE LYMPHOCYTE” value [1]?
Answer: 16804.67 CELLS/uL

Question: What about the “ABSOLUTE MONOCYTE” value [1] of the same compound?
Answer: 401.67 CELLS/uL

Question: And the “ABSOLUTE SEGMENTED NEUTROPHIL” value [1]?
Answer: 1803 CELLS/uL

Question: And the BASOPHIL [1]?
Answer: 0%

Question: And the EOSINOPHIL [1]?
Answer: 0.67%

Question: And the “ERYTHROCYTE COUNT” value [1]?
Answer: 5.83 x10E6/uL

Question: And the HEMATOCRIT [1]?
Answer: 37.17%

Question: And the HEMOGLOBIN [1]?
Answer: 13.9 G/DL

Question: And the “LEUKOCYTE COUNT” value [1]?
Answer: 19.17 x10E3/uL

Question: What about the LYMPHOCYTE [1] of the same compound?
Answer: 88.33%

Question: What about the “MEAN CORPUSCULAR HEMOGLOBIN” value [1] of the same compound?
Answer: 23.87 pg

Question: What about the “MEAN CORPUSCULAR HEMOGLOBIN CONCENTRATION” value [1] of the same compound?
Answer: 37.4 G/DL

Question: And the “MEAN CORPUSCULAR VOLUME” value [1]?
Answer: 63.73 fL

Question: And the MONOCYTE [1]?
Answer: 2%

Question: And the NEUTROPHIL [1]?
Answer: 9%

Question: And the “NUCLEATED RED BLOOD CELLS” value [1]?
Answer: 0 /100WBC

Question: What about the “PLATELET COUNT” value [1] of the same compound?
Answer: 1287.67 x10E3/uL

Question: And the “ALANINE AMINOTRANSFERASE” value [1]?
Answer: 53.67 u/L

Question: What about the ALBUMIN [1] of the same compound?
Answer: 4.23 G/DL

Question: What about the “ALKALINE PHOSPHATASE” value [1] of the same compound?
Answer: 376.33 u/L

Question: What about the “ASPARTATE AMINOTRANSFERASE” value [1] of the same compound?
Answer: 93.67 u/L

Question: What about the “BLOOD UREA NITROGEN” value [1] of the same compound?
Answer: 19.33 mg/dL

Question: And the “CARBON DIOXIDE” value [1]?
Answer: 27 mmol/L

Question: And the CHLORIDE [1]?
Answer: 104.67 MEQ/L

Question: And the CHOLESTEROL [1]?
Answer: 78.67 mg/dL

Question: What about the “CREATINE PHOSPHOKINASE” value [1] of the same compound?
Answer: 449.67 u/L

Question: What about the CREATININE [1] of the same compound?
Answer: 0.23 mg/dL

Question: And the GLUCOSE [1]?
Answer: 160.33 mg/dL

Question: What about the “LACTATE DEHYDROGENASE” value [1] of the same compound?
Answer: 370.33 u/L

Question: And the LIPASE [1]?
Answer: 9.67 u/L

Question: What about the PHOSPHORUS [1] of the same compound?
Answer: 13.2 mg/dL

Question: What about the POTASSIUM [1] of the same compound?
Answer: 6.82 MEQ/L

Question: And the SODIUM [1]?
Answer: 143.93 MEQ/L

Question: And the “TOTAL BILIRUBIN” value [1]?
Answer: 0.17 mg/dL

Question: What about the “TOTAL PROTEIN” value [1] of the same compound?
Answer: 5.97 G/DL

Question: What about the “URIC ACID” value [1] of the same compound?
Answer: 2.07 mg/dL

Question: And the “ABSOLUTE BASOPHIL” value [2]?
Answer: 0 CELLS/uL

Question: And the “ABSOLUTE EOSINOPHIL” value [2]?
Answer: 121 CELLS/uL

Question: And the “ABSOLUTE LYMPHOCYTE” value [2]?
Answer: 13133.33 CELLS/uL

Question: What about the “ABSOLUTE MONOCYTE” value [2] of the same compound?
Answer: 333 CELLS/uL

Question: What about the “ABSOLUTE SEGMENTED NEUTROPHIL” value [2] of the same compound?
Answer: 979.33 CELLS/uL

Question: And the BASOPHIL [2]?
Answer: 0%

Question: What about the EOSINOPHIL [2] of the same compound?
Answer: 1%

Question: And the “ERYTHROCYTE COUNT” value [2]?
Answer: 5.73 x10E6/uL

Question: And the HEMATOCRIT [2]?
Answer: 36.13%

Question: What about the HEMOGLOBIN [2] of the same compound?
Answer: 13.17 G/DL

Question: And the “LEUKOCYTE COUNT” value [2]?
Answer: 14.57 x10E3/uL

Question: And the LYMPHOCYTE [2]?
Answer: 90%

Question: And the “MEAN CORPUSCULAR HEMOGLOBIN” value [2]?
Answer: 23.03 pg

Question: What about the “MEAN CORPUSCULAR HEMOGLOBIN CONCENTRATION” value [2] of the same compound?
Answer: 36.43 G/DL

Question: What about the “MEAN CORPUSCULAR VOLUME” value [2] of the same compound?
Answer: 63.13 fL

Question: And the MONOCYTE [2]?
Answer: 2.33%

Question: And the NEUTROPHIL [2]?
Answer: 6.67%

Question: What about the “NUCLEATED RED BLOOD CELLS” value [2] of the same compound?
Answer: 0.33 /100WBC

Question: What about the “PLATELET COUNT” value [2] of the same compound?
Answer: 1198.67 x10E3/uL

Question: And the “ALANINE AMINOTRANSFERASE” value [2]?
Answer: 68 u/L

Question: And the ALBUMIN [2]?
Answer: 4.1 G/DL

Question: What about the “ALKALINE PHOSPHATASE” value [2] of the same compound?
Answer: 375.67 u/L

Question: And the “ASPARTATE AMINOTRANSFERASE” value [2]?
Answer: 167.67 u/L

Question: What about the “BLOOD UREA NITROGEN” value [2] of the same compound?
Answer: 17.67 mg/dL

Question: What about the “CARBON DIOXIDE” value [2] of the same compound?
Answer: 25 mmol/L

Question: What about the CHLORIDE [2] of the same compound?
Answer: 101.33 MEQ/L

Question: And the CHOLESTEROL [2]?
Answer: 63.67 mg/dL

Question: What about the “CREATINE PHOSPHOKINASE” value [2] of the same compound?
Answer: 4593 u/L

Question: And the CREATININE [2]?
Answer: 0.28 mg/dL

Question: What about the GLUCOSE [2] of the same compound?
Answer: 200 mg/dL

Question: And the “LACTATE DEHYDROGENASE” value [2]?
Answer: 387 u/L

Question: And the LIPASE [2]?
Answer: 10.33 u/L

Question: What about the PHOSPHORUS [2] of the same compound?
Answer: 12.87 mg/dL

Question: And the POTASSIUM [2]?
Answer: 6.87 MEQ/L

Question: What about the SODIUM [2] of the same compound?
Answer: 143.37 MEQ/L

Question: What about the “TOTAL BILIRUBIN” value [2] of the same compound?
Answer: 0.3 mg/dL

Question: And the “TOTAL PROTEIN” value [2]?
Answer: 5.53 G/DL

Question: And the “URIC ACID” value [2]?
Answer: 2.37 mg/dL

Question: What about the “ABSOLUTE BASOPHIL” value [3] of the same compound?
Answer: 0 CELLS/uL

Question: What about the “ABSOLUTE EOSINOPHIL” value [3] of the same compound?
Answer: 225.33 CELLS/uL

Question: And the “ABSOLUTE LYMPHOCYTE” value [3]?
Answer: 13517.67 CELLS/uL

Question: And the “ABSOLUTE MONOCYTE” value [3]?
Answer: 404.33 CELLS/uL

Question: And the “ABSOLUTE SEGMENTED NEUTROPHIL” value [3]?
Answer: 1186 CELLS/uL

Question: What about the BASOPHIL [3] of the same compound?
Answer: 0%

Question: What about the EOSINOPHIL [3] of the same compound?
Answer: 1.33%

Question: And the “ERYTHROCYTE COUNT” value [3]?
Answer: 6.38 x10E6/uL

Question: What about the HEMATOCRIT [3] of the same compound?
Answer: 39.27%

Question: And the HEMOGLOBIN [3]?
Answer: 14.57 G/DL

Question: And the “LEUKOCYTE COUNT” value [3]?
Answer: 15.33 x10E3/uL

Question: What about the LYMPHOCYTE [3] of the same compound?
Answer: 88.33%

Question: What about the “MEAN CORPUSCULAR HEMOGLOBIN” value [3] of the same compound?
Answer: 22.83 pg

Question: And the “MEAN CORPUSCULAR HEMOGLOBIN CONCENTRATION” value [3]?
Answer: 37.13 G/DL

Question: What about the “MEAN CORPUSCULAR VOLUME” value [3] of the same compound?
Answer: 61.57 fL

Question: And the MONOCYTE [3]?
Answer: 2.67%

Question: And the NEUTROPHIL [3]?
Answer: 7.67%

Question: What about the “NUCLEATED RED BLOOD CELLS” value [3] of the same compound?
Answer: 0 /100WBC

Question: And the “PLATELET COUNT” value [3]?
Answer: 1170.67 x10E3/uL

Question: What about the “ALANINE AMINOTRANSFERASE” value [3] of the same compound?
Answer: 59 u/L

Question: And the ALBUMIN [3]?
Answer: 4.47 G/DL

Question: And the “ALKALINE PHOSPHATASE” value [3]?
Answer: 424.33 u/L

Question: What about the “ASPARTATE AMINOTRANSFERASE” value [3] of the same compound?
Answer: 93.33 u/L

Question: And the “BLOOD UREA NITROGEN” value [3]?
Answer: 17 mg/dL

Question: And the “CARBON DIOXIDE” value [3]?
Answer: 26.67 mmol/L

Question: What about the CHLORIDE [3] of the same compound?
Answer: 105.67 MEQ/L

Question: What about the CHOLESTEROL [3] of the same compound?
Answer: 58 mg/dL

Question: What about the “CREATINE PHOSPHOKINASE” value [3] of the same compound?
Answer: 497 u/L

Question: And the CREATININE [3]?
Answer: 0.24 mg/dL

Question: And the GLUCOSE [3]?
Answer: 175.33 mg/dL

Question: What about the “LACTATE DEHYDROGENASE” value [3] of the same compound?
Answer: 205.33 u/L

Question: What about the LIPASE [3] of the same compound?
Answer: 9 u/L

Question: What about the PHOSPHORUS [3] of the same compound?
Answer: 12.87 mg/dL

Question: And the POTASSIUM [3]?
Answer: 6.66 MEQ/L

Question: And the SODIUM [3]?
Answer: 144.8 MEQ/L

Question: And the “TOTAL BILIRUBIN” value [3]?
Answer: 0.2 mg/dL

Question: And the “TOTAL PROTEIN” value [3]?
Answer: 6.27 G/DL

Question: And the “URIC ACID” value [3]?
Answer: 1.93 mg/dL
